Counter-ions that a name gives are not always drawn.
How the values were obtained:
TGFβ1 = assay: High-throughput screening assay for TGFβ1 production (ELISA of hDF supernatants); type: cell-based, human; conditions: 3 days of treatment
Experimental: (§1) For TGFβ1 production assay hDFs were plated into 96 well Clear tissue-culture treated plates (Falcon) at 19,000 cells/well in DMEM (Gibco) 1× N2/B27 Supplement (Invitrogen). […] After 3 days of treatment, supernatants were collected and analyzed for TGFβ1 content using TGFβ1 Human ELISA Kit (Abcam) and with BioTek Synergy 2 Multi-Detection Microplate Reader (see FIG. 1).

Collagen Type 1 = assay: High-throughput screening assay for Collagen Type 1 production (Procollagen Type 1C-Peptide EIA of hDF supernatants); type: cell-based, human; conditions: 3 days of treatment
EGF = assay: High-throughput screening assay for EGF production (ELISA of hDF supernatants); type: cell-based, human; conditions: 3 days of treatment
Experimental: as §1, with “EGF” for “TGFβ1”

[1] = test system: human dermal fibroblast (hDF); assay: High-throughput proliferation screening assay of human dermal fibroblasts; type: cell-based; conditions: at concentration of 200 nM; 3 days of treatment; DAPI imaging
Experimental: For the proliferation assay, human dermal fibroblast (hDF) were plated into 96 well Black/Clear bottom tissue-culture treated plates (Corning) at 1,000 cells/well in DMEM (Gibco) 15% FBS (HyClone). […] After 3 days of treatment, cells were fixed and stained with DAPI and analyzed using Roche Cellavista High-Content Imaging System (see FIG. 1).

FGF7 = assay: High-throughput screening assay for FGF7 production (ELISA of hDF supernatants); type: cell-based, human; conditions: at concentration of 25 μM; 3 days of treatment
Experimental: as §1, with “FGF7” for “TGFβ1”

[2] = at concentrations of 25 and 12.5 μM

Cc1cc(C)c(S(=O)(=O)Nc2cccc(C(F)(F)F)c2)c(C)c1 [m-3M3FBS]
production level of TGFβ1 in hDFs (TGFβ1; at concentration of 24 nM): induced the highest production level

O=C1CCc2cc(OCCCCc3nnnn3C3CCCCC3)ccc2N1 [Cilostazol]
production level of Collagen Type 1 in hDFs (Collagen Type 1; at concentration of 6.25 μM): induced the highest production level

O=C(O)c1ccc(-c2ccc3cc(O)c(C45CC6CC(CC(C6)C4)C5)cc3c2)cc1 [CD 1530]
production level of EGF in hDFs (EGF; [2]): induced the highest production level

Proxyfan Oxalate
production level of TGFβ1 in hDFs (TGFβ1; at concentration of 24 nM): induced the highest production level

CN1CC(=O)NC1=NC(=O)Nc1cccc(Cl)c1 [Fenobam]
proliferation level in hDFs [1]: induced the highest proliferation level

OCCN(CCO)c1nc(N2CCCCC2)c2nc(N(CCO)CCO)nc(N3CCCCC3)c2n1 [Dipyridamole]
production level of Collagen Type 1 in hDFs (Collagen Type 1; at concentration of 390 nM): induced the highest production level

CCCCC[C@H](O)/C=C/[C@H]1[C@H](O)CC(=O)[C@@H]1C/C=C\CCCC(=O)O [Prostaglandin E2]
production level of FGF7 in hDFs (FGF7): induced the highest production level

Cl.Cl.Nc1ncnc2nc(-c3ccc(N4CCOCC4)nc3)cc(-c3cccc(Br)c3)c12 [ABT702 dihydrochloride]
proliferation level in hDFs [1]: induced the highest proliferation level

PSB 06126
production level of EGF in hDFs (EGF; at concentration of 12.5 (unit not given)): induced the highest production level

CN(C)C(=O)C(=O)c1cn(C)c2cc(Cl)c(C(=O)N3CCC(Cc4ccc(F)cc4)CC3)cc12 [SX 011]
proliferation level in hDFs [1]: induced the highest proliferation level

CN1CCC[C@@H]1CCO[C@](C)(c1ccccc1)c1ccc(Cl)cc1 [Clemastine fumarate]
production level of Collagen Type 1 in hDFs (Collagen Type 1; at concentration of 780 nM): induced the highest production level

O=C(O)c1ccc2cc(-c3ccc(O)c(C45CC6CC(CC(C6)C4)C5)c3)ccc2c1 [CD 437]
production level of EGF in hDFs (EGF; [2]): induced the highest production level

CS(=O)(=O)O.N=C(N)SCCc1ccc(OCc2ccc([N+](=O)[O-])cc2)cc1 [KB-R7943 mesylate]
production level of TGFβ1 in hDFs (TGFβ1; at concentration of 1.6 μM): induced the highest production level

CN1Cc2ccccc2[C@@H]2c3cccc4[nH]cc(c34)C[C@H]21 [CY 208-243]
production level of EGF in hDFs (EGF; at concentrations of 12.5 μM): induced the highest production level

Reference: patent US10335422B2, “Small molecules that promote skin regeneration” (International Stem Cell Corporation, priority 2013, dated 2019)
